Assay results published in article PMC6458995, “MAP4K4 Inhibition Promotes Survival of Human Stem Cell-Derived Cardiomyocytes and Reduces Infarct Size In Vivo” (Cell Stem Cell, 2019).

What was measured:
Experiment in all cases: Dundee kinase panel
Type in all cases: biochemical
Details in all cases: for remaining activity at 1 µM: read-out: residual activity
PDGFRA = target: T1, PDGFRA (Homo sapiens, UniProt P16234)
T1 construct: lines 1-140) and Reaction Biology
Procedure: (§1) Compounds were screened at 1 μM. For key hits, pIC50 values were then determined by HTRF as above. […] Stability in mouse and human liver microsomes was determined by Cyprotex.

EPH-B4 = target: T2, EPH-B4 (Homo sapiens, UniProt P54760)
T2 construct: lines 1-140) and Reaction Biology
T2 sequence (P54760 16-987): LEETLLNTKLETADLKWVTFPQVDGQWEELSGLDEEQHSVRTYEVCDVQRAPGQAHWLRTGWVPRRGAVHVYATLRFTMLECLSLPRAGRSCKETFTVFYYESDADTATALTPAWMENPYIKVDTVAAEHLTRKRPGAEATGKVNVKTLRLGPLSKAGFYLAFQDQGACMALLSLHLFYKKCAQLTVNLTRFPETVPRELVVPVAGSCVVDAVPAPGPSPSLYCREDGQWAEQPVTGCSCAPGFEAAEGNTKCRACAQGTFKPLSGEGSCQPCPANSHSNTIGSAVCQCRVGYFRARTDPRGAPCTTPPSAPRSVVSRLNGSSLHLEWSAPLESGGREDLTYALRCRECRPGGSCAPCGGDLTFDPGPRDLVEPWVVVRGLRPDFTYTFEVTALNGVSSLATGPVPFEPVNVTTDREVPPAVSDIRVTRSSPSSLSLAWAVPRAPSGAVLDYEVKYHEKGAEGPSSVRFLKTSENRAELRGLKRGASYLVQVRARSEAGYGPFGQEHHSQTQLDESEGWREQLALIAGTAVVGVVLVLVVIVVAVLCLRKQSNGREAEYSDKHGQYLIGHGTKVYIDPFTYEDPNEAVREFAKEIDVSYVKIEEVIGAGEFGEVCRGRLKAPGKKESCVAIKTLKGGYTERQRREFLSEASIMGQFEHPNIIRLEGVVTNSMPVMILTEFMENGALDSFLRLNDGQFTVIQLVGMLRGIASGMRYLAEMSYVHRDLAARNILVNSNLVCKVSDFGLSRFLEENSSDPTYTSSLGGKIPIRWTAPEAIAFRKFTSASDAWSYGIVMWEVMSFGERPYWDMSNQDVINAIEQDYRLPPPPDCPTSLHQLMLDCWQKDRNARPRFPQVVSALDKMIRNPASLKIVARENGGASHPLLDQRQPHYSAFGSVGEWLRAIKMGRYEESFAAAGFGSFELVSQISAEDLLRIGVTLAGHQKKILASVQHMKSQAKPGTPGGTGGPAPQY
Procedure: as §1

p38d MAPK = target: T3, p38d MAPK (Homo sapiens, UniProt O15264)
T3 construct: lines 1-140) and Reaction Biology
T3 sequence (O15264 1-365): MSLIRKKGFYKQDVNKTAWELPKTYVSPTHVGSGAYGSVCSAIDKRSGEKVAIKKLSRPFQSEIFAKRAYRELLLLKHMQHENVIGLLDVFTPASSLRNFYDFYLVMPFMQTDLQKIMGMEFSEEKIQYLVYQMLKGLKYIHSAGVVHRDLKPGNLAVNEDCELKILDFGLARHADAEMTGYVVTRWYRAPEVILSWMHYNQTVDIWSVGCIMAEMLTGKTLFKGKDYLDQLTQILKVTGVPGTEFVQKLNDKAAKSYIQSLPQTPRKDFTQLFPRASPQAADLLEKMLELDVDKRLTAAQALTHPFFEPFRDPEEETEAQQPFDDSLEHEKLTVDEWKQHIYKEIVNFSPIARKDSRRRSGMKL
Procedure: as §1

MST3 = target: T4, MST3 (Homo sapiens, UniProt Q9Y6E0)
T4 construct: lines 1-140) and Reaction Biology
T4 sequence (Q9Y6E0 whole entry): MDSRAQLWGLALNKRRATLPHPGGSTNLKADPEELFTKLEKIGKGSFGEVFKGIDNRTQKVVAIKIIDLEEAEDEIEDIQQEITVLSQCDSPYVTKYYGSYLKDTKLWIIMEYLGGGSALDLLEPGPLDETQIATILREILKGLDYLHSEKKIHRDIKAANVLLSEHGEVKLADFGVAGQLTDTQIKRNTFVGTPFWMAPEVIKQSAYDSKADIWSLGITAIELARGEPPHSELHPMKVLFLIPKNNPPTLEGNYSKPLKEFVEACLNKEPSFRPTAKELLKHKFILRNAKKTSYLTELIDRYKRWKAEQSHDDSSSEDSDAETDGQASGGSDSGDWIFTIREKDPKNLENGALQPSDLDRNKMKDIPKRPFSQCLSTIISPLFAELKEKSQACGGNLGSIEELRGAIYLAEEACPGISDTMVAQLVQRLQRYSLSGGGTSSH
Procedure: as §1

S6K1 = target: T5, S6K1 (Homo sapiens, UniProt P23443)
T5 construct: lines 1-140) and Reaction Biology
T5 sequence (P23443 whole entry): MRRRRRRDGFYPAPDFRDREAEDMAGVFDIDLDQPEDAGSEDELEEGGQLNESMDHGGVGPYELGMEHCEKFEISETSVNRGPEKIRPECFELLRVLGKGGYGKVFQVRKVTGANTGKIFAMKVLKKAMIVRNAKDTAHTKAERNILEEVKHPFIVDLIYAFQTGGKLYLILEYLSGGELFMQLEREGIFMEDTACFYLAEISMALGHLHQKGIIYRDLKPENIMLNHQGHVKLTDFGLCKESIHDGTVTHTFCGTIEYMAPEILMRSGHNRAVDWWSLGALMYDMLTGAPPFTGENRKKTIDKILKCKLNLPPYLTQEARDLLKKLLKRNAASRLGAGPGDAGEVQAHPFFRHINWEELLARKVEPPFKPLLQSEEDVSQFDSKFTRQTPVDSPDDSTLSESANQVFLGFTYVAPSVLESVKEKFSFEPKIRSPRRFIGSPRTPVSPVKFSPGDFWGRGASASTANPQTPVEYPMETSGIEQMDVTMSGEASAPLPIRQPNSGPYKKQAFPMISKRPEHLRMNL
Procedure: as §1

MKK6 = target: T6, MKK6 (Homo sapiens, UniProt P52564)
T6 construct: lines 1-140) and Reaction Biology
T6 sequence (P52564 1-334): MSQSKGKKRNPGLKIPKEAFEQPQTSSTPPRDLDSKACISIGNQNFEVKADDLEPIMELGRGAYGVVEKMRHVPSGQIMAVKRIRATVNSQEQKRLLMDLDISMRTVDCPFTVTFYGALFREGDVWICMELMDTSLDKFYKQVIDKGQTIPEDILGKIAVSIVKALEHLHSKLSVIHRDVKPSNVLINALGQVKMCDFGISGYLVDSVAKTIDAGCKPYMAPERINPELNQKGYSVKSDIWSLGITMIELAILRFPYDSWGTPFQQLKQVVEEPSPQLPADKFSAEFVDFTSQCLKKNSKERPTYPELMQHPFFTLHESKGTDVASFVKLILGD
Procedure: as §1

BRSK1 = target: T7, BRSK1 (Homo sapiens, UniProt Q8TDC3)
T7 construct: lines 1-140) and Reaction Biology
T7 sequence (Q8TDC3 1-778): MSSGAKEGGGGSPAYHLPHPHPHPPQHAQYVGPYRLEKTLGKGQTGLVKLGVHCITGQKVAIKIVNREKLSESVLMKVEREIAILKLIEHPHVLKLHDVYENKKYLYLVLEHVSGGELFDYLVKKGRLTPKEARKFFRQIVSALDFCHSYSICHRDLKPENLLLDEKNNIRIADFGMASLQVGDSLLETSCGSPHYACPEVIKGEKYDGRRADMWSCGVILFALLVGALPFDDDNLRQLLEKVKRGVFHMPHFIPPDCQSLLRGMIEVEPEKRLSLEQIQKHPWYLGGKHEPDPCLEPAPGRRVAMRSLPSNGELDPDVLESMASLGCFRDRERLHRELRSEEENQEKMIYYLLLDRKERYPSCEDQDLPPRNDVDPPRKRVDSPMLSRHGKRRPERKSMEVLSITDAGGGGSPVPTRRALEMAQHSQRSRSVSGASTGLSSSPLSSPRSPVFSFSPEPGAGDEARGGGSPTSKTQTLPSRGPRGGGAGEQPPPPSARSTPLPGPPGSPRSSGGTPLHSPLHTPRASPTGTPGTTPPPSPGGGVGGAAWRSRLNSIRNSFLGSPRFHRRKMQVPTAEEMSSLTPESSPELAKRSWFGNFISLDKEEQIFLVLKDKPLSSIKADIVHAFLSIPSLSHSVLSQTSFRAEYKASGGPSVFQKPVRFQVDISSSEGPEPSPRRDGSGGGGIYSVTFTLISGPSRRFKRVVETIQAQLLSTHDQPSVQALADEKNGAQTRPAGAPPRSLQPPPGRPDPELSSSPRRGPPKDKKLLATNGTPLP
Procedure: as §1

T1 sequence (P16234 24-1089): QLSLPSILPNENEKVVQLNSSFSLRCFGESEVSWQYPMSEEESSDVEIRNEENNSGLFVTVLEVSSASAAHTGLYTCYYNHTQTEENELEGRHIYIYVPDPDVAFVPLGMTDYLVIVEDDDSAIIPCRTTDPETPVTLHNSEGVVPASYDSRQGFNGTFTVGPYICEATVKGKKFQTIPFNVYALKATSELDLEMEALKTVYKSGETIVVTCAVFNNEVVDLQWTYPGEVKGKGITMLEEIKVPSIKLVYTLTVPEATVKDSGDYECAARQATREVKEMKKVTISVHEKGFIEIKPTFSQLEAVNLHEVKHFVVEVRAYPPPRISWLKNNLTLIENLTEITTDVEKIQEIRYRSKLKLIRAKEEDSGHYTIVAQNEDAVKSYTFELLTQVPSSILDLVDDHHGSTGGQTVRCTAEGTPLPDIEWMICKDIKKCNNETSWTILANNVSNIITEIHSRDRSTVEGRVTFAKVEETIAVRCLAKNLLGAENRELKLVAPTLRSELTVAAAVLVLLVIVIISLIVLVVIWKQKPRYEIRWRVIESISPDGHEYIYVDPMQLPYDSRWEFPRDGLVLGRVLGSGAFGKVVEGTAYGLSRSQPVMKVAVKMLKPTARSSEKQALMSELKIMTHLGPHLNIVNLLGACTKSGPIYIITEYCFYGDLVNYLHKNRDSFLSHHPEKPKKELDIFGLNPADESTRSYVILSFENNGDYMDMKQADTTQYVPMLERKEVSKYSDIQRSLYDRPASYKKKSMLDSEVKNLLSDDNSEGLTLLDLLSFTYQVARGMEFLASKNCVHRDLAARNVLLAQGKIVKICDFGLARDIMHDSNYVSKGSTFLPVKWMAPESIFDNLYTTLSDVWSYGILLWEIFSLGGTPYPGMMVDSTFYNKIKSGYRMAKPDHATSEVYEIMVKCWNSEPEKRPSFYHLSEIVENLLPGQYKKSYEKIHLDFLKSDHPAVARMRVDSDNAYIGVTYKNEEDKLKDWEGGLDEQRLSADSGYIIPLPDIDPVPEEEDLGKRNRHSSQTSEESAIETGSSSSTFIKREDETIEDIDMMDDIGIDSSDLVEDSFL

Compound | remaining activity at 1 µM (PDGFRA) | remaining activity at 1 µM (EPH-B4) | remaining activity at 1 µM (p38d MAPK) | remaining activity at 1 µM (MST3) | remaining activity at 1 µM (S6K1) | remaining activity at 1 µM (MKK6) | remaining activity at 1 µM (BRSK1) | residual activity (PDGFRA; 1 μM) | residual activity (EPH-B4; 1 μM) | residual activity (p38d MAPK; 1 μM) | residual activity (MST3; 1 μM) | residual activity (S6K1; 1 μM) | residual activity (MKK6; 1 μM) | residual activity (BRSK1; 1 μM)
O=C1Cc2c([nH]c3ccc(Br)cc23)-c2ccccc2N1 [Kenpaullone] | 48% | 85% | 91% | 67% | 97% | 102% | 55% | – | – | – | – | – | – | –
COCCOc1ccc(-c2cn(-c3ccccc3)c3nc[nH]c(=O)c23)cc1 [DMX-5804, 5-[4-(2-methoxy-ethoxy)-phenyl]-7-phenyl-3,7-dihydro-pyrrolo[2,3-d]pyrimidin-4-one] | 88% | 100% | 107% | 95% | 121% | 112% | 97% | – | – | – | – | – | – | –
O=C1Nc2ccc(I)cc2/C1=C/c1cc(Br)c(O)c(Br)c1 [GW5074] | 24% | 94% | 82% | 29% | 87% | 81% | 68% | – | – | – | – | – | – | –
Nc1ncc(C(=O)NC2CN(C(=O)C3CC3)C2)c2ccc(-c3cccc(F)c3)nc12 [GNE-495] | – | – | – | – | – | – | – | 97% | 106% | 110% | 72% | 43% | 97% | 71%
Oc1ncnc2c1c(-c1ccccc1)cn2-c1ccccc1 [F1386-0303, 5,7-diphenyl-7H-pyrrolo[2,3-d]pyrimidin-4-ol] | 93% | 102% | 114% | 120% | 105% | 105% | 84% | – | – | – | – | – | – | –
